We go through 35 molecules from publication PMC5943930, “Identification of Inhibitors Targeting Ferredoxin-NADP^+ Reductase from the Xanthomonas citri subsp. citri Phytopathogenic Bacteria” (Molecules : A Journal of Synthetic Chemistry and Natural …, 2017).

The target of this experiment is T1, XccFPR (Xanthomonas citri pv. citri, UniProt A0AAI7ZED9).
T1 sequence (A0AAI7ZED9 1-259): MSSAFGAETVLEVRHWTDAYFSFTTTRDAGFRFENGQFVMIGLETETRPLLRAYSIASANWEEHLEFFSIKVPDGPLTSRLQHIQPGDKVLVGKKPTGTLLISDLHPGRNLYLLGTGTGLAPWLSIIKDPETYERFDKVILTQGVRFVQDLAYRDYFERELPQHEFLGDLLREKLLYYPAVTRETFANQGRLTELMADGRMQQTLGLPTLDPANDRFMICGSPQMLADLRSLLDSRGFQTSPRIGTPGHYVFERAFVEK
Kind of experiment: NADPH-dependent DCPIP diaphorase activity of XccFPR, dose-response of inhibitors. Format: biochemical, Xanthomonas citri subsp. citri. As for the experimental part:
When assayed in regular cuvettes, the DCPIP diaphorase activity of XccFPR was determined at 25 °C using a Cary 100 (Agilent Technologies Inc., Santa Clara, CA, USA) spectrophotometer as previously established. […] Positive controls (without any hit compound) were included in every reaction set. […] The DMSO concentration was kept at 2% in all samples. All kinetic experiments were performed in triplicate. The effect of the inhibitors on Km and kcat was determined by fitting the datasets to the Michaelis-Menten model. Additionally, data were globally fit to either Lineweaver-Burk equations for uncompetitive or non-competitive inhibition, yielding Ki for each compound (Equations (1) and (2), respectively).

The mark [1] stands for this setting: 25 °C, 2% DMSO, pH 8.0, 20 nM XccFPR, 95 µM DCPIP, 50 μM NADPH.

Where two headings read alike, the source gives them in different places. Some results are limits rather than exact numbers.

One may read the IC50 as the midpoint of a concentration-inhibition curve. A higher IC50 goes with lower potency. As a reminder, the % Inhibition is the share of the control response that was lost under treatment.

For the molecule `O=C(O/N=C/Nc1ncc(-c2ccc(Br)s2)s1)c1ccc([N+](=O)[O-])cc1` [C25, (E)-({[5-(5-bromothiophen-2-yl)-1,3-thiazol-2-yl]amino}methylidene)amino 4-nitrobenzoate], inhibition was half-maximal at 91 ± 1 µM (IC50). Further, under setting [1], the “% Inhibition at ICmax” value is reported as around 91%.

`CCOC(=O)c1c(C)c(C#N)c(NC(=O)c2ccccc2)n1-c1ccccc1` [C14, ethyl 5-benzamido-4-cyano-3-methyl-1-phenyl-1H-pyrrole-2-carboxylate] gave a 50% inhibitory concentration (IC50) of 127 ± 1 µM. The “% Inhibition at ICmax” value under setting [1] is 85 ± 4%.

Molecule `O=C(COC(=O)c1cccc(I)c1)c1ccccc1` [C35, 2-oxo-2-phenylethyl 3-iodobenzoate] had an IC50 of 63 ± 1 µM. Further, the “% Inhibition at ICmax” value under setting [1] is listed as 100 ± 1%.

Molecule `O=C(CCn1c(=O)oc2ccccc21)Sc1ccc(Cl)cc1Cl` [C15, 3-{3-[(2,4-dichlorophenyl)sulfanyl]-3-oxopropyl}-2,3-dihydro-1,3-benzoxazol-2-one] returned an IC50 of 30 ± 1 µM.

In the case of `O=C(Nc1ccccc1-c1nc(-c2ccc(Cl)cc2)no1)C(F)(F)F` [C29, N-{2-[3-(4-chlorophenyl)-1,2,4-oxadiazol-5-yl]phenyl}-2,2,2-trifluoroacetamide], the half-inhibitory concentration (IC50) was determined as 11 ± 2 µM. Also, under setting [1], the “% Inhibition at ICmax” value is 27 ± 2%.

With `Nc1c(Cl)cc(C(=O)Nc2cc(Cl)c(Cl)cc2Cl)cc1Cl` [C10, 4-amino-3,5-dichloro-N-(2,4,5-trichlorophenyl)benzamide], the concentration for half-maximal inhibition (IC50) worked out at 98 ± 1 µM. For the same molecule, under setting [1], the “% Inhibition at ICmax” value was determined as 57 ± 7%.

On to `CC(C)N(C(=O)c1ccc(-c2ccccc2F)cc1)C(C)C` [C6, 4-(2-fluorophenyl)-N,N-bis(propan-2-yl)benzamide], for which the IC50 is above 605 µM. Moreover, under setting [1], the “% Inhibition at ICmax” value is given as around 70%.

The molecule `CCOC(=O)CNC(=O)CCc1cc(OC)c(OC)c(OC)c1` [C33, ethyl 2-[3-(3,4,5-trimethoxyphenyl)propanamido]acetate] came in with an IC50 above 1920 µM. For the same molecule, under setting [1], the “% Inhibition at ICmax” value is given as around 53%.

On to `COc1cc(C2SCCS2)cc([N+](=O)[O-])c1OS(=O)(=O)c1cc(Cl)ccc1Cl` [C11, 4-(1,3-dithiolan-2-yl)-2-methoxy-6-nitrophenyl 2,5-dichlorobenzene-1-sulfonate], for which it took 78 ± 1 µM to reach half-maximal inhibition (IC50). Also, the “% Inhibition at ICmax” value under setting [1] came to 92 ± 5%.

As for `Clc1ccc2sc(SCc3ccccc3)nc2c1` [C8, 2-(benzylsulfanyl)-5-chloro-1,3-benzothiazole], inhibition was half-maximal at 79 ± 1 µM (IC50). Under setting [1], the “% Inhibition at ICmax” value came to 88 ± 9%.

In turn, `CSc1sc(NC(=O)N2CCOCC2)c(-c2ccc(Cl)cc2)c1C#N` [D4, N-[3-(4-chlorophenyl)-4-cyano-5-(methylsulfanyl)thiophen-2-yl]morpholine-4-carboxamide] had an IC50 of 113 ± 1 µM. Moreover, under setting [1], the “% Inhibition at ICmax” value amounted to 78 ± 2%.

Turning to `O=C1/C(=C/c2cccs2)CCC/C1=C\c1cccs1` [C22, (2E,6E)-2,6-bis[(thiophen-2-yl)methylidene]cyclohexan-1-one], the IC50 came to 58 ± 2 µM. Besides, the “% Inhibition at ICmax” value under setting [1] is reported as 100 ± 4%.

`C#CC1(NC(=O)NCCCCCCNC(=O)NC2(C#C)CCCCC2)CCCCC1` [C7, 3-(1-ethynylcyclohexyl)-1-(6-{[(1-ethynylcyclohexyl)carbamoyl]amino}hexyl) urea] had an IC50 of 85 ± 16 µM. In addition, the “% Inhibition at ICmax” value under setting [1] is given as 97 ± 7%.

`COC(=O)c1sccc1NC(=O)Cc1cccs1` [C26, methyl 3-[2-(thiophen-2-yl)acetamido]thiophene-2-carboxylate] registered an IC50 of 33 ± 2 µM.

In turn, `CSc1sc(C(=O)O)c(-c2cccc(Cl)c2)c1C#N` [D6, 3-(3-chlorophenyl)-4-cyano-5-(methylsulfanyl)thiophene-2-carboxylic acid] came in with an IC50 above 1500 µM.

As to `N#CC1=C(N)OC2=C(COc3ccc(F)cc32)C1c1ccc(Cl)cc1` (stereo not drawn) [C34, 2-amino-4-(4-chlorophenyl)-9-fluoro-4H,5H-pyrano[3,2-c]chromene-3-carbonitrile], the concentration for half-maximal inhibition (IC50) is 210 ± 1 µM. In addition, the “% Inhibition at ICmax” value under setting [1] is around 87%.

For the molecule `CCOC(=O)C1=C(C)NC(C)=C(C(=O)OCC)C1c1ccc(-c2cc(C(F)(F)F)ccc2Cl)o1` [C21, 3,5-diethyl 4-{5-[2-chloro-5-(trifluoromethyl)phenyl]furan-2-yl}-2,6-dimethyl-1,4-dihydropyridine-3,5-dicarboxylate], half-maximal inhibition (IC50) was put at 14 ± 1 µM. Further, the “% Inhibition at ICmax” value under setting [1] worked out at 62 ± 7%.

`Brc1csc(C2SCCS2)c1` [C31, 2-(4-bromothiophen-2-yl)-1,3-dithiolane] had an IC50 of 90 ± 1 µM. In addition, the “% Inhibition at ICmax” value under setting [1] is listed as 85 ± 1%.

In turn, `O=C(CSc1nc2cc(Cl)ccc2o1)Nc1cc(C(F)(F)F)cc(C(F)(F)F)c1` [C5, N-[3,5-bis(trifluoromethyl)phenyl]-2-[(5-chloro-1,3-benzoxazol-2-yl)sulfanyl]acetamide] showed an IC50 of 46 ± 1 µM.

As for `N#CC(C#N)=C1SC=C(c2ccc(Cl)cc2)S1` [C23, 2-[4-(4-chlorophenyl)-2H-1,3-dithiol-2-ylidene]propanedinitrile], the IC50 is above 604 µM. Further, under setting [1], the “% Inhibition at ICmax” value stood at 73 ± 3%.

As for `CC(C)S(=O)(=O)c1c(SCC#N)sc(C#N)c1N` [C27, 3-amino-5-[(cyanomethyl)sulfanyl]-4-(propane-2-sulfonyl)thiophene-2-carbonitrile], the IC50 came to 89 ± 1 µM. Moreover, the “% Inhibition at ICmax” value under setting [1] amounted to 92 ± 3%.

On to `Cn1cc(Br)c(/C=N/Nc2ccc(Cl)cc2Cl)n1` [C17, 4-bromo-3-[(1E)-[2-(2,4-dichlorophenyl)hydrazin-1-ylidene]methyl]-1-methyl-1H-pyrazole], for which the midpoint of inhibition, the IC50, lay at 27 ± 2 µM.

`Cc1ccc(C)c(CSc2nc(C3CCCCC3)c(C#N)c(=O)[nH]2)c1` [C24, 4-cyclohexyl-2-{[(2,5-dimethylphenyl)methyl]sulfanyl}-6-oxo-1,6-dihydropyrimidine-5-carbonitrile]: the IC50 turned out to be 35 ± 1 µM. Also, under setting [1], the “% Inhibition at ICmax” value came out at 43 ± 4%.

Molecule `CCCCc1ccc(NC(=O)CSc2nc(C3CCCCC3)c(C#N)c(=O)[nH]2)c(C)c1` [C28, N-(4-butyl-2-methylphenyl)-2-[(5-cyano-4-cyclohexyl-6-oxo-1,6-dihydropyrimidin-2-yl)sulfanyl]acetamide] came in with a half-maximal inhibitory concentration (IC50) above 652 µM. For the same molecule, under setting [1], the “% Inhibition at ICmax” value came to 81 ± 2%.

`Cc1cccc(C)c1NC(=O)Nc1cccs1` [D7, 1-(2,6-dimethylphenyl)-3-thiophen-2-ylurea] came in with an IC50 of 151 ± 1 µM. Further, the “% Inhibition at ICmax” value under setting [1] came to 84 ± 1%.

Consider `N#CC(NCc1ccccc1)c1ccc(Cl)c(Cl)c1` (stereo not drawn) [C13, 2-(benzylamino)-2-(3,4-dichlorophenyl)acetonitrile], for which the half-inhibitory concentration (IC50) stood at 95 ± 1 µM. The “% Inhibition at ICmax” value under setting [1] turned out to be 80 ± 3%.

Regarding `Nc1ccccc1Sc1cc(C(F)(F)F)cc([N+](=O)[O-])c1Sc1ccccc1N` [C18, 2-({2-[(2-aminophenyl)sulfanyl]-6-nitro-4-(trifluoromethyl)phenyl}sulfanyl)aniline], 24 ± 1 µM corresponded to half-maximal inhibition (IC50).

As to `Cc1cc(C)c2cc(C(=O)Nc3ccc4c(c3)OCO4)[nH]c2c1` [C20, N-(2H-1,3-benzodioxol-5-yl)-4,6-dimethyl-1H-indole-2-carboxamide], the concentration for half-maximal inhibition (IC50) was 53 ± 2 µM. Moreover, the “% Inhibition at ICmax” value under setting [1] is 100 ± 1%.

For “benzalkonium chloride [C3, reference compound]”, under “25 °C, 50 mM Tris/HCl, 2% DMSO, pH 8.0, 20 nM XccFPR, 95 µM DCPIP, 50 μM NADPH”, the “ICmax (concentration causing maximal inhibition)” value is listed as 300 ± 3 µM. In addition, half-maximal inhibition (25 °C, 50 mM Tris/HCl, 2% DMSO, pH 8.0, 20 nM XccFPR, 95 µM DCPIP, 50 μM NADPH, compound 0–800 μM) (IC50) required 190 ± 1 µM. Besides, the “% Inhibition at ICmax” value under setting [1] stood at 31 ± 8%.

`Cc1oc(C(=O)NNC(=O)Nc2cccc(C(F)(F)F)c2)nc1-c1ccccc1` [C9, 5-methyl-4-phenyl-N-({[3-(trifluoromethyl)phenyl]carbamoyl}amino)-1,3-oxazole-2-carboxamide] came in with a half-inhibitory concentration (IC50) of 147 ± 1 µM. For the same molecule, under setting [1], the “% Inhibition at ICmax” value is 60 ± 4%.

In the case of `O=C(Nc1cccc(Cl)c1)Nc1ccccc1NS(=O)(=O)c1cccs1` [D1, 3-(3-chlorophenyl)-1-[2-(thiophene-2-sulfonamido)phenyl]urea], the IC50 came out at 76 ± 1 µM. The “% Inhibition at ICmax” value under setting [1] is reported as 98 ± 1%.

As to `O=C(O)c1c2c(nc3ccccc13)CSc1ccc(Cl)cc1-2` [C30, 2-chloro-6H-5-thia-7-azatetraphene-12-carboxylic acid], the IC50 is 29 ± 1 µM.

`Cc1nc(-c2cc(C#N)c(SCCNS(=O)(=O)c3cccc(C(F)(F)F)c3)nc2C)cs1` [C19, N-(2-{[3-cyano-6-methyl-5-(2-methyl-1,3-thiazol-4-yl)pyridin-2-yl]sulfanyl}ethyl)-3-(trifluoromethyl)benzene-1-sulfonamide] gave a 50% inhibitory concentration (IC50) of 17 ± 1 µM.

As for `O=[N+]([O-])c1ccc(Oc2c(Cl)cccc2Cl)cc1` [C4, 1,3-dichloro-2-(4-nitrophenoxy)benzene], inhibition was half-maximal at 36 ± 1 µM (IC50). Moreover, the “% Inhibition at ICmax” value under setting [1] amounted to 86 ± 1%.

As for `Cc1ccc2oc(=O)n(CCC(=O)NNC(=O)c3nc(-c4cccs4)no3)c2c1` [C32, 3-(5-methyl-2-oxo-2,3-dihydro-1,3-benzoxazol-3-yl)-N'-[3-(thiophen-2-yl)-1,2,4-oxadiazole-5-carbonyl]propanehydrazide], the half-inhibitory concentration (IC50) was above 2720 µM. The “% Inhibition at ICmax” value under setting [1] is around 56%.
